Experimental data published in ChEMBL document CHEMBL3217690, “Superiority of a novel EGFR targeted covalent inhibitor over its reversible counterpart in overcoming drug resistance” (Medchemcomm, 2012).
Active and inactive are the calls of the source. The calls are words filed in the database; no cut-off is given here.

Key:
[1] = Inhibition of EGF-induced EGFR E746 to E750 deletion mutant-mediated pS6 phosphorylation in human HCC827 cells after 1 hr by immunoblotting method; assay type: cell-based; conditions: HCC827, 1 h
[2] = biological target: T1, Epidermal growth factor receptor (Homo sapiens, UniProt P00533, L858R/T790M); experiment: Inhibition of EGF-induced EGFR L858R/T790M mutant-mediated Akt phosphorylation in human […] cells after 1 hr by immunoblotting method; assay type: cell-based
T1 sequence (P00533 25-1210 T790M/L858R limits assumed): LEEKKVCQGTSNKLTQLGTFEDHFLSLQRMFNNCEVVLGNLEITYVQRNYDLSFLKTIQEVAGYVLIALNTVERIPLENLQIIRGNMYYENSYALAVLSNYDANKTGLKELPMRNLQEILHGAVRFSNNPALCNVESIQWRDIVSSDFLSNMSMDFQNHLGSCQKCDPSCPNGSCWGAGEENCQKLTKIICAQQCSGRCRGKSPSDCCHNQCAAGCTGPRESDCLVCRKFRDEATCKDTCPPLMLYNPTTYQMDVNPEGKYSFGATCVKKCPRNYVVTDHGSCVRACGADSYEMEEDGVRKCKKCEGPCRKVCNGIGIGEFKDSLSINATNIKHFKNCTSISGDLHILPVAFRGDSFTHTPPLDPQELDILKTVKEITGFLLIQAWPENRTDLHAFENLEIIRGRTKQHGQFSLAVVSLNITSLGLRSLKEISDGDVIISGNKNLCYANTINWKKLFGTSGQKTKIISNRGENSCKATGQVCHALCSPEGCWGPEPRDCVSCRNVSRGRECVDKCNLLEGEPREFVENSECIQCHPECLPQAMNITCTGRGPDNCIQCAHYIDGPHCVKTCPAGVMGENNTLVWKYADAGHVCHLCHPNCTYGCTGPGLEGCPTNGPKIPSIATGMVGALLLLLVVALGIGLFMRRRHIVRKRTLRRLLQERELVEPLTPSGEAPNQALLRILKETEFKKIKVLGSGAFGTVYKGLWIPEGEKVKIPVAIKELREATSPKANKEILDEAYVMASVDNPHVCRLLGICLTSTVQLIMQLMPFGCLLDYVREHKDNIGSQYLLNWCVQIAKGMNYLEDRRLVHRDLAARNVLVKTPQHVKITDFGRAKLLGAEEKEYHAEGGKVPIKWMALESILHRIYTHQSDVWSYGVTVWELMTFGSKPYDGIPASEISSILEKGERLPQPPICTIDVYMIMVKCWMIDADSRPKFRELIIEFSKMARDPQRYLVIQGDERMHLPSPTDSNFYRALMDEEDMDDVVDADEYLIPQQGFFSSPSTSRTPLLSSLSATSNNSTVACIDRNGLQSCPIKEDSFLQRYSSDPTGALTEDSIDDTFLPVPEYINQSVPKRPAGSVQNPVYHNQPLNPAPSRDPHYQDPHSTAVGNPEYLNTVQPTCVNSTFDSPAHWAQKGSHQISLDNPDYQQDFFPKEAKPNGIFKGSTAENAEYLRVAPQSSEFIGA

[3] = biological target: T2, Epidermal growth factor receptor (Homo sapiens, UniProt P00533); experiment: Irreversible inhibition of EGF-induced EGFR autophosphorylation in human A431 cells assessed as residual activity compound preincubated at 1 uM for 1 to 8 hrs measured after 1 hr post compound washout by immunoblotting method; assay type: cell-based; conditions: A-431
T2 sequence (P00533 whole entry): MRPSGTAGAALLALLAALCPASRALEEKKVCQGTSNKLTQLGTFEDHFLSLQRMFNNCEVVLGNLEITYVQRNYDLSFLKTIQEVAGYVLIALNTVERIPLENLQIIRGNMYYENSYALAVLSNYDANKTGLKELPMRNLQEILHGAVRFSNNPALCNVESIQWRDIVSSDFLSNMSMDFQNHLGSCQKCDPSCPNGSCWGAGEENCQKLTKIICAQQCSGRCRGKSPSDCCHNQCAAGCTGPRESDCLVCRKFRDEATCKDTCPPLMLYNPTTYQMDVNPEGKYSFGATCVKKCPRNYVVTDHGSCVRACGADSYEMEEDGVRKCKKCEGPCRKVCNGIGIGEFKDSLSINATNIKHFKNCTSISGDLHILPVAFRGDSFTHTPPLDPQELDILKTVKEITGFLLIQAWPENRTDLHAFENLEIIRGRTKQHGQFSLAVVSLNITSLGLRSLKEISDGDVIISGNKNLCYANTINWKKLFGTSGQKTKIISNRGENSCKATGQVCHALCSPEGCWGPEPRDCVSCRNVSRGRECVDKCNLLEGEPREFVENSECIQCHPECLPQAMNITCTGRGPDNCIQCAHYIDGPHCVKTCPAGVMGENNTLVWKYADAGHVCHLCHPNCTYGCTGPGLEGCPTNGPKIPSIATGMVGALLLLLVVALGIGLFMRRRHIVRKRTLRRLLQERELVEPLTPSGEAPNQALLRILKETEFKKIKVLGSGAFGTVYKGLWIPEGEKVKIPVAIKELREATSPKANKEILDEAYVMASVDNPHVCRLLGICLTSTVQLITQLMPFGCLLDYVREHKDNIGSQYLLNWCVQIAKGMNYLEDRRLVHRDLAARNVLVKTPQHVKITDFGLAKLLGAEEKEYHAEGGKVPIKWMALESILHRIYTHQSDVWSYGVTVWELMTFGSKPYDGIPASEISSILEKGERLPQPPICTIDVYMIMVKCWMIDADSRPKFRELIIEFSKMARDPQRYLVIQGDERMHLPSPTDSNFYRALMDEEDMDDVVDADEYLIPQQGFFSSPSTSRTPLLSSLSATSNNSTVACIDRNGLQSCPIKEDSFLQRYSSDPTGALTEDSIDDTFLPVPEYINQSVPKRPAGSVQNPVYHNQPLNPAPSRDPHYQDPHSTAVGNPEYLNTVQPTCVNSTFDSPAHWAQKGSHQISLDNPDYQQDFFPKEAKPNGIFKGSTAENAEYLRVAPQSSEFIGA

[4] = tested on: NCI-H1975; experiment: Growth inhibition of human NCI-H1975 cells harboring EGFR L858R/T790M mutant assessed as reduction in cell viability after 72 hrs by CellTiter Glo assay; assay type: functional; conditions: NCI-H1975, 72 h
[5] = biological target: T2, Epidermal growth factor receptor; experiment: Inhibition of EGF-induced EGFR-mediated pS6 phosphorylation in human A431 cells after 1 hr by immunoblotting method; assay type: cell-based, A-431
[6] = Inhibition of EGF-induced EGFR E746 to E750 deletion mutant-mediated Akt phosphorylation in human HCC827 cells after 1 hr by immunoblotting method; assay type: cell-based; conditions: HCC827, 1 h
[7] = biological target: T1, Epidermal growth factor receptor; experiment: Inhibition of EGF-induced EGFR L858R/T790M mutant autophosphorylation in human […] cells after 1 hr by immunoblotting method; assay type: cell-based
[8] = biological target: T2, Epidermal growth factor receptor; experiment: Inhibition of EGF-induced EGFR autophosphorylation in human A431 cells at 1 uM after 30 mins by immunoblotting method; assay type: cell-based; conditions: A-431
[9] = biological target: T1, Epidermal growth factor receptor; experiment: Inhibition of EGF-induced EGFR L858R/T790M mutant-mediated ERK phosphorylation in human […] cells after 1 hr by immunoblotting method; assay type: cell-based
[10] = biological target: T2, Epidermal growth factor receptor; experiment: Inhibition of EGF-induced EGFR autophosphorylation in human A431 cells at 1 uM after 2 mins by immunoblotting method; assay type: cell-based; conditions: A-431
[11] = organism: Homo sapiens; experiment: Covalent binding affinity to EGFR C773S mutant (unknown origin) after 1 hr by mass spectrometry
[12] = biological target: T2, Epidermal growth factor receptor; experiment: Inhibition of wild type EGFR (unknown origin) using Y12-Sox peptide as substrate preincubated for 30 mins by fluorescence assay
[13] = Growth inhibition of human HCC827 cells harboring EGFR E746 to E750 deletion mutant assessed as reduction in cell viability after 72 hrs by CellTiter Glo assay; assay type: functional; conditions: HCC827, 72 h
[14] = Inhibition of EGF-induced EGFR E746 to E750 deletion mutant autophosphorylation in human HCC827 cells after 1 hr by immunoblotting method; assay type: cell-based; conditions: HCC827, 1 h
[15] = biological target: T1, Epidermal growth factor receptor; experiment: Inhibition of EGFR L858R/T790M mutant (unknown origin) using Y12-Sox peptide as substrate preincubated for 30 mins by fluorescence assay; assay type: protein assay
[16] = biological target: T2, Epidermal growth factor receptor; experiment: Covalent binding affinity to wild type EGFR (unknown origin) after 1 hr by mass spectrometry
[17] = biological target: T2, Epidermal growth factor receptor; experiment: Inhibition of EGF-induced EGFR-mediated Akt phosphorylation in human A431 cells after 1 hr by immunoblotting method; assay type: cell-based, A-431
[18] = biological target: T1, Epidermal growth factor receptor; experiment: Inhibition of EGF-induced EGFR L858R/T790M mutant-mediated pS6 phosphorylation in human […] cells after 1 hr by immunoblotting method; assay type: cell-based
[19] = biological target: T2, Epidermal growth factor receptor; experiment: Inhibition of EGF-induced EGFR autophosphorylation in human A431 cells after 1 hr by immunoblotting method; assay type: cell-based, A-431
[20] = tested on: A-431; experiment: Growth inhibition of human A431 cells harboring wild type EGFR assessed as reduction in cell viability after 72 hrs by CellTiter Glo assay; assay type: functional; conditions: A-431, 72 h
[21] = biological target: T2, Epidermal growth factor receptor; experiment: Inhibition of EGF-induced EGFR-mediated ERK phosphorylation in human A431 cells after 1 hr by immunoblotting method; assay type: cell-based, A-431
[22] = biological target: T2, Epidermal growth factor receptor; experiment: Inhibition of EGF-induced EGFR autophosphorylation in human A431 cells at 1 uM after 10 mins by immunoblotting method; assay type: cell-based; conditions: A-431
[23] = biological target: T2, Epidermal growth factor receptor; experiment: Reversible inhibition of EGF-induced EGFR autophosphorylation in human A431 cells assessed as residual activity compound preincubated at 1 uM for 1 hr measured after 1 hr post compound washout by immunoblotting method; assay type: cell-based; conditions: A-431
[24] = biological target: T2, Epidermal growth factor receptor; experiment: Reversible inhibition of EGF-induced EGFR autophosphorylation in human A431 cells assessed as residual activity compound preincubated at 1 uM for 1 hr measured after 8 hrs post compound washout by immunoblotting method; assay type: cell-based; conditions: A-431

Row | SMILES | EC50 [1] [nM] | EC50 [2] [nM] | GI50 [4] [nM] | IC50 [5] [nM] | EC50 [6] [nM] | EC50 [7] [nM] | EC50 [9] [nM] | IC50 [12] [nM] | GI50 [13] [nM] | EC50 [14] [nM] | IC50 [15] [nM] | Activity [16] | IC50 [17] [nM] | EC50 [18] [nM] | IC50 [19] [nM] | GI50 [20] [nM] | IC50 [21] [nM] | other results
1 | C=CC(=O)Nc1cccc(Nc2cc(Nc3cccc(Br)c3)ncn2)c1 | < 20 | 166 | 134 | 511 | < 20 | 441 | 172 | < 1 | < 5 | < 20 | 5.4 | > 80% | 104 | 427 | 49 | 18 | 509 | inhibition [3]: Active; inhibition [8]: Active; inhibition [10]: 50%; Activity [11]: inactive; inhibition [22]: 90%
2 | CCC(=O)Nc1cccc(Nc2cc(Nc3cccc(Br)c3)ncn2)c1 | < 20 | > 4580 | 89 | 243 | < 20 | > 5000 | > 5000 | < 1 | 15 | 27 | > 5000 | inactive | 136 | > 5000 | 166 | 18 | 1160 | Activity [23]: 20%; Activity [24]: 60%
